Reference: US6693082B2, “Method of inhibiting metastatic dissemination using desmopressin” (priority 1999, dated 2004)
Marks after values point to notes of the source that are not given here.

Columns and labels:
[1] = system: murine mammary cancer cell line F3II (sarcomatoid carcinoma); assay: Assay 1: inhibition of pulmonary metastatic colonization, i.v. inoculated F3II cells in BALB/c mice; format: in vivo
Description: (§1) Assay 1: Inhibition of Metastatic Colonization by the Application of Desmopressin 12-16 weeks old syngenic mice from the BALB/c strain weighing 25 g on average were used. As tumor cells, murine mammary cancer cell lines […] (sarcomatoid carcinoma) and LM3 (poorly differentiated adenocarcinoma) were used and kept in monolayer culture in minimum essential medium (MEM, Gibco, Grand Island, N.Y.), supplemented with 5% heat-inactivated bovine fetal serum, 2 mM glutamine and gentamicine 80 μg/ml ([…]. Farías, […]. Bal de Kier Joffé, Characterization of […], a Mammary Sarcomatoid Carcinoma Cell Line Originated From a Mouse Adenocarcinoma, J. Surg. Oncol. 1996, 62:288-97). In order to collect them, cells were trypsinized following conventional procedures. Desmopressin available from Ferring Pharmaceuticals (Malmo, Sweden) was used. Desmopressin as provided by Sigma Chemical Co. (St. Louis, Miss.) was also employed. Mice were inoculated with tumor cells at a concentration of 2×10^5 cells/0.3 ml MEM/mouse in the side vein of their tails, in accordance with the following schedule and using eight animals in each group: Coinjection with Desmopressin: tumor cells were preincubated in serum-free MEM and i.v. coinjected with desmopressin, at a final dose of 1 μg ([…] cells) or 2 μg (LM3 cells) per kg of body weight. Preincubation with Desmopressin: tumor cell suspensions were preincubated in serum-free MEM for 30-60 minutes at 37° C., in the presence of equivalent concentrations of desmopressin (80-160 ng/ml MEM). Then, cells were pelleted, resuspended in serum-free MEM and i.v. injected in the absence of desmopressin. Control: animals inoculated with tumor cells, with no desmopressin treatment. Three weeks after inoculation, lung weights were quantified and the number of pulmonary metastatic nodules was determined under the dissection microscope.

[2] = system: murine mammary cancer cell line LM3 (poorly differentiated adenocarcinoma); assay: Assay 1: inhibition of pulmonary metastatic colonization, i.v. inoculated LM3 cells in BALB/c mice; format: in vivo
Description: as §1

[3] = system: breast carcinoma tumor cells F3II; assay: Assay 2: extension of desmopressin action on experimental metastases (i.v. injection after tumor cell inoculation); format: in vivo, mice
Description: Assay 2: Extension of Desmopressin Action on Experimental Metastases Four groups of ten mice each were organized, and were inoculated with breast carcinoma tumor cells […], in accordance with the above description for Assay 1. Thereafter they were intravenously injected with desmopressin in 0.1 ml of physiological solution at different times (1.5 hours, 3 hours and 24 hours) after the inoculation with tumor cells. Quantification of pulmonary weights took place three weeks after tumoral inoculation. The results are depicted in FIG. 1, in which they are expressed as media±error standard. Similar results were obtained by quantifying the number of pulmonary metastatic nodules per animal.

[4] = system: F3II tumor cell suspensions; assay: Assay 3A: cell survival of tumor cell suspensions, trypan blue; format: cell-based, murine; conditions: 80 ng/ml and 160 ng/ml; 1-5 hours at 37° C. in serum-free MEM
Description: Assay 3: Cell Survival and Cytotoxicity In Vitro
A. F3II tumor cell suspensions were incubated at 37° C. in serum-free MEM: in the absence of desmopressin, in the presence of desmopressin, at concentrations of 80 ng/ml, in the presence of desmopressin, at concentrations of 160 ng/ml.
After 1-5 hours, cellular viability was assessed by the trypan blue technique. The results are shown in FIG. 2, where the absence of desmopressin (squares) and the presence of desmopressin are represented at concentrations of 80 ng/ml (triangles) and of 160 ng/ml (circles).

[5] = system: mammary carcinoma murine model F3II; conditions: F3II cells in culture; 100 ng/ml at 1 μg/ml; cited from earlier work
[6] = mouse, in vivo; cited from earlier work
[7] = human, in vivo; cited from earlier work
[8] = in vivo, cited from earlier work

SMILES	Number of median pulmonary nodules (range) ([1]; F3II cells preincubated 30-60 minutes at 37° C. with desmopressin (80-160 ng/ml MEM), injected in absence of desmopressin, three weeks)	Decrease in number of metastatic nodules ([1]; F3II cells, coinjection with desmopressin vs control)	Number of median pulmonary nodules (range) ([1]; F3II cells, i.v. coinjection with desmopressin, final dose 1 μg per kg, three weeks after inoculation, p < 0.01 vs control)	Incidence of metastatic nodules after tumor cell preincubation in vitro ([1]; F3II cells, preincubation with equivalent concentrations of desmopressin)	Number of median pulmonary nodules (range) ([2]; LM3 cells preincubated 30-60 minutes at 37° C. with desmopressin (80-160 ng/ml MEM), injected in absence of desmopressin, three weeks)	Decrease in number of metastatic nodules ([2]; LM3 cells, coinjection with desmopressin vs control)	Number of median pulmonary nodules (range) ([2]; LM3 cells, i.v. coinjection with desmopressin, final dose 2 μg per kg, three weeks after inoculation, p < 0.01 vs control)	Incidence of metastatic nodules after tumor cell preincubation in vitro ([2]; LM3 cells, preincubation with equivalent concentrations of desmopressin)	Extrapulmonary metastases ([3]; animals treated with desmopressin)	Inhibition of metastases (pulmonary weights, FIG. 1) ([3]; desmopressin i.v. 24 hours after inoculation of tumor cells, three weeks after inoculation)	Cell viability of tumor cell suspensions (trypan blue, FIG. 2) [4]	Breast cancer cell proliferation [5]	Urokinase secretion [5]	Effects of high dose in mice [6]	Thrombotic risk [7]	Half-life ([8]; iv, 20 ug)	Drug eliminated unmetabolized [8]
NC(=O)CC[C@@H]1NC(=O)[C@H](Cc2ccccc2)NC(=O)[C@H](Cc2ccc(O)cc2)NC(=O)CCSSC[C@@H](C(=O)N2CCC[C@H]2C(=O)N[C@H](CCCN=C(N)N)C(=O)NCC(N)=O)NC(=O)[C@H](CC(N)=O)NC1=O [desmopressin, 1-deamino-8-D-arginine vasopressin]	19 (3-66)	about 70%	5 (0-12)*	did not lessen the incidence of metastatic nodules	12 (8-37)	about 70%	3 (1-18)*	did not lessen the incidence of metastatic nodules	No extrapulmonary metastases were found	inhibition of metastases was also effected	did not reduce cell viability	able to modulate	able to modulate	no relevant effects	0.0001%	≤ 2.67 h	60%
NC(=O)CC[C@@H]1NC(=O)[C@H](Cc2ccccc2)NC(=O)[C@H](Cc2ccc(O)cc2)NC(=O)[C@@H](N)CSSC[C@@H](C(=O)N2CCC[C@H]2C(=O)N[C@@H](CCCN=C(N)N)C(=O)NCC(N)=O)NC(=O)[C@H](CC(N)=O)NC1=O [vasopressin]												able to modulate	able to modulate				
